According to PubChem BioAssay AID1344 (Sanford-Burnham Center for Chemical Genomics, 2008):

Each molecule was assayed on CSM14.1 thapsigargin death, annexin V/PI flow, 24 h (assay: rescue from thapsigargin-induced apoptotic death, late-stage follow-up, orthogonal assay for ER stress death inhibitor project, cell-based, undifferentiated CSM14.1, flow cytometry (AID 1344)). Conditions: at 25 µM; active compounds read high.

Row | SMILES | survival [%]
1 | COc1ccc(C2CC(=O)C3=C(C2)Nc2ccccc2NC3c2cc(C)ccc2C)cc1 (stereo unspecified) | 95
2 | COc1ccc(C2CC(=O)C3=C(C2)Nc2ccccc2NC3c2cccc(Oc3ccccc3)c2)cc1OC (stereo unspecified) | 95
3 | CC1(C)CC(=O)C2=C(C1)Nc1ccccc1NC2c1ccc(-c2ccccc2)cc1 (stereo unspecified) | 97
4 | O=C1CC(c2ccccc2)CC2=C1C(c1c(F)cccc1Cl)Nc1ccccc1N2 (stereo unspecified) | 96
5 | COc1ccc(C2CC(=O)C3=C(C2)Nc2ccccc2NC3c2ccccc2C(F)(F)F)cc1OC (stereo unspecified) | 96
6 | CCCOc1ccc(C2Nc3ccccc3NC3=C2C(=O)CC(c2ccc(OC)c(OC)c2)C3)cc1 (stereo unspecified) | 92
7 | CSc1ccc(C2Nc3ccccc3NC3=C2C(=O)CC(c2ccccc2)C3)cc1 (stereo unspecified) | 96
8 | CCOc1cc(C2Nc3ccccc3NC3=C2C(=O)CC(c2ccc(OC)cc2)C3)cc(Cl)c1O (stereo unspecified) | 93
9 | COc1ccc(C2CC(=O)C3=C(C2)Nc2ccccc2NC3c2cccc(C(F)(F)F)c2)cc1OC (stereo unspecified) | 95
10 | COc1ccc(C2CC(=O)C3=C(C2)Nc2ccccc2NC3c2cccc(Br)c2)cc1OC (stereo unspecified) | 96
11 | CCOc1cccc(C2Nc3ccccc3NC3=C2C(=O)CC(c2ccc(OC)cc2)C3)c1 (stereo unspecified) | 90
